Test results: US20110009453A1, “S1P3 RECEPTOR INHIBITORS FOR TREATING INFLAMMATION” (priority 2008, published 2011)
Like-named read-outs stand apart in the source and are kept apart here.

Key:
human S1P3 receptor = target: T1, human S1P3 receptor (Homo sapiens, UniProt Q99500); test: FLIPR assay in T24 cells stably expressing the human S1P3 receptor; format: cell-based; conditions: for inhibition at 10 µM: T-24, read-out: S1P3 percent inhibition (in parenthesis)
T1 construct: expressed in transfected cells
T1 sequence (Q99500 whole entry): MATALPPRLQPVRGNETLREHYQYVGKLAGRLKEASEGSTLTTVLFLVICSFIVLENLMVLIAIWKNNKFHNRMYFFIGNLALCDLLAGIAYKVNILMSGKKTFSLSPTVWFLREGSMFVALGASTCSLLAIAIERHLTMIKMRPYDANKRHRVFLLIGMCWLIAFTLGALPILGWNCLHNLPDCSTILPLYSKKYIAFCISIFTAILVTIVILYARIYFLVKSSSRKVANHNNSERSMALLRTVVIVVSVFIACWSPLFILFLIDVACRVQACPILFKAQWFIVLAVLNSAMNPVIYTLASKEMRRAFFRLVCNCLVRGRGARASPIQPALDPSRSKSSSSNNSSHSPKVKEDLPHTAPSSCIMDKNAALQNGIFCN
Description: Another method of determining if a compound is an S1P3 receptor inhibitor is with a FLIPR assay. An example of this method is described in U.S. patent application Ser. No. 11/675,168, the contents of which are incorporated herein by reference. According to that application, compounds may be assessed for their ability to activate or block activation of the human S1P3 receptor in T24 cells stably expressing the human S1P3 receptor. In this assay ten thousand cells/well are plated into 384-well poly-D-lysine coated plates one day prior to use. The growth media for the S1P3 receptor expressing cell line is McCoy's 5A medium supplemented with 10% charcoal-treated fetal bovine serum (FBS), 1% antibiotic-antimycotic and 400 μg/ml geneticin. On the day of the experiment, the cells are washed twice with Hank's Balanced Salt Solution supplemented with 20 mM HEPES (HBSS/Hepes buffer). The cells are then dye loaded with 2 uM Fluo-4 diluted in the HBSS/Hepes buffer with 1.25 mM Probenecid and incubated at 37° C. for 40 minutes. Extracellular dye is removed by washing the cell plates four times prior to placing the plates in the FLIPR (Fluorometric Imaging Plate Reader, Molecular Devices). Ligands are diluted in HBSS/Hepes buffer and prepared in 384-well microplates. The positive control, S1P, is diluted in HBSS/Hepes buffer with 4 mg/ml fatty acid free bovine serum albumin. The FLIPR transfers 12.5 μl from the ligand microplate to the cell plate and takes fluorescent measurements for 75 seconds, taking readings every second, and then for 2.5 minutes, taking readings every 10 seconds. Drugs are tested over the concentration range of to 0.61 nM to 10,000 nM. Data for Ca^+2 responses is obtained in arbitrary fluorescence units and not translated into Ca^+2 concentrations. IC50 values are determined through a […] analysis using the Levenburg Marquardt algorithm.
Examples of such compounds include the following. […] The EC50 and IC50 values expressed in the following table were obtained in the FLIPR assay described above. EC50 or IC50 values are stated first, followed by percent efficacy or percent inhibition stated in parenthesis. In this table and the next, percent efficacy is defined as percent of receptor activity induced by a test compound at the highest dose tested (10 μM) relative to the receptor activity induced by 5 nM sphingosine-1-phosphate, and percent inhibition is defined as percent of receptor activity induced by 5 nM sphingosine-1-phosphate that is inhibited by a test compound at the highest dose tested (10 μM). “NA” means that no activity was detected at highest dose tested; “ND” means not determined.
The IC50 values expressed below were obtained in the FLIPR assay described above. IC50 values are stated first (except as otherwise noted), followed by percent efficacy or percent inhibition in parenthesis.

S1P1 receptor = S1P1 receptor (Homo sapiens, UniProt P21453); test: FLIPR assay (Ca2+ response), S1P1 receptor; format: cell-based
Chain of S1P1 receptor (P21453 whole entry): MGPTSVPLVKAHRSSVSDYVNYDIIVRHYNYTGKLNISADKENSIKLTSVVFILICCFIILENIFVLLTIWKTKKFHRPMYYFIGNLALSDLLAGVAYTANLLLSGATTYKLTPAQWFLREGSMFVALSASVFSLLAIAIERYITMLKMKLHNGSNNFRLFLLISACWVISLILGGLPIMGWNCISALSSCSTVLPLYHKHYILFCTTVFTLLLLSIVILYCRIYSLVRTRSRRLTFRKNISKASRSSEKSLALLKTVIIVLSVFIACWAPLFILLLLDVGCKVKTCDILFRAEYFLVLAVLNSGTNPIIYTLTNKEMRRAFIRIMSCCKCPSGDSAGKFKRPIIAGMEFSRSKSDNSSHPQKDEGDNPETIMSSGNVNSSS

[1] = percent of activity induced by 5 nM sphingosine-1-phosphate inhibited at 10 μM, table of additional selective S1P3 inhibitors
[2] = FLIPR, table of additional selective S1P3 inhibitors, read-out: S1P3 (IC50)
[3] = FLIPR, values given in μM, read-out: S1P3 (IC50)
[4] = percent of activity induced by 5 nM sphingosine-1-phosphate inhibited at highest dose tested (10 μM)
[5] = tested 0.61 nM to 10,000 nM, NA = no activity detected at highest dose tested, read-out: S1P1 (EC50)
[6] = FLIPR, values in nM, read-out: S1P3 (IC50)

Compound | inhibition at 10 µM (human S1P3 receptor; [1]) [%] | IC50 (human S1P3 receptor; [3]) [µM] | inhibition at 10 µM (human S1P3 receptor; [4]) [%] | other results
CC(C)c1c(C(=O)NCc2ccc(F)c(F)c2)c2cc(O)ccc2n1Cc1ccccc1 | 98 | – | – | IC50 (human S1P3 receptor): 0.035 µM
O=C(NCc1ccc(F)c(F)c1)c1c(C2CCCC2)n(Cc2ccccc2)c2ccc(O)cc12 | 100 | – | – | IC50 (human S1P3 receptor; [2]): 0.031 µM
CC(C)c1c(C(=O)NCc2ccc(F)c(F)c2)c2ccccc2n1Cc1ccccc1 | 100 | – | – | IC50 (human S1P3 receptor): 0.209 µM
CCOc1ccc2c(C(=O)NCc3ccc(F)c(F)c3)c(C(C)C)n(Cc3ccccc3)c2c1 | 100 | – | – | IC50 (human S1P3 receptor): 0.019 µM
CCCOc1ccc2c(C(=O)NCc3ccc(F)c(F)c3)c(C(C)C)n(Cc3ccccc3)c2c1 | 100 | – | – | IC50 (human S1P3 receptor): 0.005 µM
CC(C)Oc1ccc2c(C(=O)NCc3ccc(F)c(F)c3)c(C(C)C)n(Cc3ccccc3)c2c1 | 100 | – | – | IC50 (human S1P3 receptor): 0.006 µM
O=C(NCc1ccc(F)c(F)c1)c1c(C2CCCC2)n(Cc2ccccn2)c2ccc(O)cc12 | 99 | – | – | IC50 (human S1P3 receptor; [2]): 0.017 µM
O=P(O)(O)CCCNCc1ccc(-c2ccccc2)c(-c2ccccc2)n1 [Compound 146] | – | 1.6 | 83 | –
Cc1ccc(-c2ccc(CNCCCP(=O)(O)O)nc2-c2ccccc2)cc1 [Compound 147] | – | – | 98 | EC50 (S1P1 receptor; [5]): 121 nM; IC50 (human S1P3 receptor; [6]): 0.231 µM
CCc1ccc(-c2ccc(CNCCCP(=O)(O)O)nc2-c2ccccc2)cc1 [Compound 148] | – | – | 98 | EC50 (S1P1 receptor; [5]): 170 nM; IC50 (human S1P3 receptor; [6]): 0.319 µM
CCc1ccc(-c2ccc(CNCCP(=O)(O)O)nc2-c2ccccc2)cc1 [Compound 149] | – | 1.8 | 99 | –
O=P(O)(O)CCCNCc1ccc(-c2ccc(C(F)(F)F)cc2)c(-c2ccccc2)n1 [Compound 150] | – | – | 95 | –
CCc1ccc(-c2ccc(CNCCCP(=O)(O)O)nc2-c2ccncc2)cc1 [Compound 151] | – | 1.1 | 95 | –
CCc1ccc(-c2ccc(CNCCP(=O)(O)O)nc2-c2ccncc2)cc1 [Compound 152] | – | 1.8 | 68 | –
CCc1ccc(-c2ccc(CNCCCCP(=O)(O)O)nc2-c2ccccc2)cc1 [Compound 153] | – | – | 30 | –
CCCc1ccc(-c2ccc(CNCCCP(=O)(O)O)nc2-c2ccccc2)cc1 [Compound 154] | – | – | 98 | EC50 (S1P1 receptor; [5]): 114 nM; IC50 (human S1P3 receptor; [6]): 0.319 µM
CCc1ccc(-c2ccc(COCCCP(=O)(O)O)nc2-c2ccccc2)cc1 [Compound 155] | – | 4 | 27 | –
Cc1ccc(-c2ccc(COCCCP(=O)(O)O)nc2-c2ccccc2)cc1 [Compound 156] | – | 1.9 | 11 | –
CCc1ccc(-c2ccc(CNCCCP(=O)(O)O)nc2-c2ccccc2)cc1 [drawing 165] | – | – | – | EC50 (S1P1 receptor; table of additional selective S1P3 inhibitors, read-out: S1P1 EC50 (noted in IC50 column)): 170 nM; IC50 (human S1P3 receptor; [2]): 0.319 µM; S1P3 percent inhibition (in parenthesis) (human S1P3 receptor; [1]): 98%
